The text below walks through data of ChEMBL document CHEMBL3988181, “GlaxoSmithKline Published Kinase Inhibitor Set 2 Onchocerca lienalis Screening Data”.

Structures are written as SMILES.

The assay in a line: GSK PKIS2: Screen against O. lienalis microfilariae, single point, at 3.1uM to assess reduction in motility. Compounds were also tested for cytotoxicity against Rhesus Monkey LLCMK2 cells. In kind it is functional, Onchocerca lienalis, LLC-MK2. Particulars: CELL_LINE LLCMK2; CELL_SUPPLIER ECACC; CONC 3.1 uM; ORGANISM_SUPPLIER Extracted from peri-umbilical skin obtained from naturally infected cattle in the UK; temperature 37 degree C.
`Fc1ccc(-c2nc3n(c2-c2ccncc2)CCS3)cc1`: the “MOTILITY REDUCTION/CYTOTOXICITY” value was found to be 13.4%. On to `c1ccc(-c2n[nH]cc2-c2ccnc3ccccc23)nc1`, for which the “MOTILITY REDUCTION/CYTOTOXICITY” value is 0%. In the case of `CN(C)Cc1ccc(-c2ccc3c(Nc4ccc(Oc5ccccn5)cc4)ccnc3c2)o1` it was 0%; in that of `O=C1NC(=O)C(N2CCc3ccccc32)=C1c1cccc(Cl)c1`, 0%; in that of `Cc1ccc(-n2nc(C(C)(C)C)cc2NC(=O)Nc2ccc(OCCN3CCOCC3)c3ccccc23)cc1` [DORAMAPIMOD], 33.4%.

In the case of `Nc1nccc(-c2c(-c3ccc(F)cc3)ncn2C2CCN(CC(F)(F)F)CC2)n1`, the “MOTILITY REDUCTION/CYTOTOXICITY” value came out at 0%. In the case of `CCn1c(-c2c(N)noc2C)nc2cnccc21` it was 0%; in that of `Cc1ccc2c(-c3ccncc3)c(-c3ccc(F)cc3)nn2c1`, 0%. In the case of `O=C(c1ccc(-c2cc(-c3c[nH]nc3-c3ccccn3)ccn2)cc1)N1CCOCC1` it was 0%. The figure for `O=c1cc(N2CCOCC2)nc2n(Cc3ccccc3F)ccn12` is 0%; for `CC[C@@H]1CO[C@H](C(=O)Nc2ccccc2)CN1c1cc(-c2ccc3c(N)n[nH]c3c2)nc(NC)n1` it is 0%; for `CSc1ccc(-c2nc3n(c2-c2ccncc2)CCC3)cc1` it is 0%.

On to `Fc1cc(Cl)ccc1Nc1ccnc2cc(-c3ccc(CN4CCSCC4)o3)ccc12`, for which the “MOTILITY REDUCTION/CYTOTOXICITY” value is on record as 33.4%.

On to `O=S(=O)(c1ccc(-c2ccnc3[nH]ccc23)cc1)N1CCCC1`, for which the “MOTILITY REDUCTION/CYTOTOXICITY” value was determined as 0%. In the case of `O=c1[nH]cc(-c2ccc(O)cc2)c2sc(-c3ccncc3)cc12` it was 0%; in that of `COc1ccc(Nc2nccc(NCCNC(=O)c3cc4ccccc4s3)n2)cc1`, 16.7%. The figure for `O=C1NC(=O)C(c2ccccc2)=C1Nc1cc(Cl)c(O)c(Cl)c1` is 0%; for `Cc1cccc(-c2nc(Nc3ccc4ncsc4c3)c3ccccc3n2)n1` it is 100%. Turning to `Cc1cccc(-c2nc(Nc3ccc4nn[nH]c4c3)c3ccccc3n2)n1`, the “MOTILITY REDUCTION/CYTOTOXICITY” value is recorded as 20%. The figure for `Oc1cc(-c2nc(-c3ccccc3)[nH]c2-c2ccncc2)ccc1Cl` is 0%; for `CCCCc1nn2ncccc2c1-c1ccnc(NC2CC2)n1` it is 0%; for `Cc1cccc(Nc2nc(N[C@H]3CCCC[C@H]3N)ncc2C(N)=O)c1` it is 40%.

Regarding `Oc1cc(Nc2ccnc3cc(I)ccc23)ccc1F`, the “MOTILITY REDUCTION/CYTOTOXICITY” value was 33.4%.

For the compound `O=c1[nH]ccc2nc(N[C@@H]3CCNC3)nc(Nc3cc(Cl)cc(Cl)c3)c12`, the “MOTILITY REDUCTION/CYTOTOXICITY” value is 100%. The figure for `Cc1n[nH]c2ccc(-c3cc(OC[C@@H](N)Cc4ccccc4)cnc3-c3ccoc3)cc12` is 0%; for `CN1C(=O)C(Nc2ccc(Cl)c(C(=O)O)c2)=C(c2ccc(Cl)cc2)C1=O` it is 0%; for `O=C1NC(=O)C(c2ccccc2Cl)=C1Nc1ccccc1` it is 0%. The figure for `CCn1c(-c2ccccc2)nc2cnccc21` is 0%; for `N#Cc1ccc(-c2cc(-c3c[nH]nc3-c3ccccn3)ccn2)cc1` it is 0%; for `CC(C)c1nc(-c2cccc(NS(=O)(=O)c3c(F)cccc3F)c2)c(-c2ccnc(Nc3ccc(N4CCOCC4)nc3)n2)s1` it is 0%. In the case of `Fc1ccc(-c2ncn(C3CCNCC3)c2-c2ccnc(Nc3ccccc3)n2)cc1` it was 0%; in that of `O=C(Nc1c(F)cccc1F)c1cc(C(=O)c2ccccc2F)c[nH]1`, 0%.

With `O=C(Nc1cccc(-c2nn3ncccc3c2-c2ccnc(Nc3ccccc3)n2)c1)c1c(F)cccc1F`, the “MOTILITY REDUCTION/CYTOTOXICITY” value was found to be 0%. In the case of `CN(C)CC(O)COc1ccc(Nc2nccc(-c3cnn4nc(N5CCOCC5)ccc34)n2)cc1` (stereo not drawn) it was 0%. The figure for `Cc1ccc(NC(=O)c2ccc(Cl)c(Cl)c2)cc1-c1ccc(C(=O)Nc2ccncc2)cc1` is 26.7%. On to `O=C(Nc1ccc(Oc2ccc3[nH]c(NC(=O)c4ccco4)nc3c2)cc1)Nc1cc(C(F)(F)F)ccc1F`, for which the “MOTILITY REDUCTION/CYTOTOXICITY” value is recorded as 0%. In the case of `O=C(Nc1n[nH]c2nc(-c3cccs3)c(Br)cc12)C1CCCC1` it was 0%. In the case of `COc1ccc(Nc2nccc(NCCNC(=O)Nc3ccccc3F)n2)cc1` it was 0%; in that of `CC(=O)Nc1n[nH]c2ncc(-c3ccccc3)cc12`, 0%. In the case of `COC(=O)Nc1nc2cc(Oc3ccc(NC(=O)Nc4cc(C(F)(F)F)ccc4F)cc3)ccc2[nH]1` it was 0%; in that of `COc1ccc(-c2oc3ncnc(N)c3c2-c2ccc(OC)cc2)cc1`, 20%. In the case of `O=C(NCCNc1ccnc(Nc2ccc(F)cc2)n1)Nc1ccccc1F`, the “MOTILITY REDUCTION/CYTOTOXICITY” value is given as 0%. The figure for `COc1cccc(C2=C(Nc3cc(Cl)c(O)c(Cl)c3)C(=O)NC2=O)c1` is 0%; for `CN(C)CCOc1ccc(-c2cc(-c3c[nH]nc3-c3ccccn3)ccn2)cc1` it is 0%; for `COc1ccccc1CNC(=O)c1cc(C(=O)c2ccccc2C)c[nH]1` it is 86.7%.

With `CCn1c(-c2ccccn2)nc2cnccc21`, the “MOTILITY REDUCTION/CYTOTOXICITY” value is listed as 0%. In the case of `Cc1nn2c(=O)cc(N3CCO[C@H](C)C3)nc2n1Cc1cccc(Cl)c1Cl` it was 33.4%; in that of `Fc1cc(Cl)ccc1Nc1ccnc2cc(-c3ccc(CN4CCOCC4)o3)ccc12`, 0%; in that of `COc1cc2ncn(-c3cc(OCCCc4ccccc4)c(C(N)=O)s3)c2cc1OC`, 33.4%. In the case of `O=C1NC(=O)C(c2ccccc2Cl)=C1Nc1cccc(Cl)c1` it was 0%; in that of `Cc1occc1-c1ncc(OC[C@@H](N)Cc2c[nH]c3ccccc23)cc1-c1ccc2[nH]nc(C)c2c1`, 0%. The figure for `CCn1c(-c2ccncc2)nc2cnccc21` is 0%. `O=C(Nc1cccc(-c2nn3ncccc3c2-c2ccnc(Nc3cccnc3)n2)c1)c1c(F)cccc1F`: the “MOTILITY REDUCTION/CYTOTOXICITY” value turned out to be 0%. In the case of `CCS(=O)(=O)c1ccc(OC)c(Nc2ncc(-c3ccc(F)cc3)o2)c1` it was 0%. The figure for `CCn1c(-c2nonc2N)nc2cncc(CNC3CCNCC3)c21` is 0%; for `CN(C)S(=O)(=O)c1cc(-c2ccc3nccc(-c4cccc(S(N)(=O)=O)c4)c3c2)cnc1N` it is 60%; for `O=C(O)c1ccc(-c2nc(-c3ccc(F)cc3)c(-c3ccncc3)[nH]2)cc1` it is 0%. In the case of `CCNCC(Cc1ccccc1)NC(=O)c1cc(Br)c(-c2ccnc3[nH]ccc23)s1` (stereo not drawn) it was 0%; in that of `Nc1n[nH]c2nnc(-c3ccccc3)cc12`, 0%; in that of `O=C1NC(=O)C(c2ccc(Cl)cc2)=C1Nc1ccccc1`, 33.4%. Consider `CCn1c(-c2cccnc2O)nc2cnccc21`, for which the “MOTILITY REDUCTION/CYTOTOXICITY” value came out at 13.4%. In the case of `COc1cc2nccc(Nc3ccc(NC(=O)c4ccc(C)cc4)c(O)c3)c2cc1OC` it was 0%; in that of `CN(C)c1ncnc2nc[nH]c12` [DIMETHYLADENINE], 0%. In the case of `Fc1cc(Cl)ccc1Nc1ccnc2cc(-c3ccc(CN4CCCCC4)o3)ccc12` it was 16.7%; in that of `Nc1nc(-c2ccc3c(N)n[nH]c3c2)cc(N2CCCC(NC(=O)c3ccccc3)C2)n1` (stereo not drawn), 0%. Turning to `CN(c1ccc(NC(=O)Nc2cc(C(F)(F)F)ccc2F)cc1)c1ccnc(Nc2ccc(S(N)(=O)=O)cc2)n1`, the “MOTILITY REDUCTION/CYTOTOXICITY” value came out at 100%. In the case of `Nc1nc(-c2ccc3c(N)n[nH]c3c2)cc(N2CCC[C@@H](C(=O)Nc3ccccc3)C2)n1` it was 0%. In the case of `c1ccc(-c2cc(-c3c[nH]nc3-c3ccccn3)ccn2)cc1` it was 0%; in that of `c1ccc(Oc2ccc(Nc3ccnc4ccc(-c5ccccn5)cc34)cc2)cc1`, 0%.

For the compound `Cc1cccc(Nc2nc(N[C@H]3CCNC3)ncc2C(N)=O)c1`, the “MOTILITY REDUCTION/CYTOTOXICITY” value is 26.7%. The figure for `c1ccc(-c2ccc3c(Nc4ccc5[nH]ccc5c4)ccnc3c2)nc1` is 33.4%.

In the case of `O=c1[nH]cc(-c2ccc(N3CCOCC3)cc2)c2sc(-c3cn[nH]c3)cc12`, the “MOTILITY REDUCTION/CYTOTOXICITY” value is given as 0%. In the case of `CCOc1nccc(-c2c(-c3ccc(F)cc3)ncn2C2CCNCC2)n1` it was 0%. The figure for `O=C(NCCNc1ccnc(Nc2ccc(F)cc2)n1)c1cc2ccccc2s1` is 66.7%; for `CNc1nccc(-c2ccc3c(N)n[nH]c3c2)n1` it is 0%.

Take `CNC(=O)c1ccccc1Nc1nc(Nc2ccc(N3CCOCC3)cc2)ncc1Cl`: the “MOTILITY REDUCTION/CYTOTOXICITY” value is on record as 80%. In the case of `Cc1cc(C)cc(Oc2nccc(-c3c(-c4ccc(F)cc4)ncn3C3CCNCC3)n2)c1` it was 20%. In the case of `Cc1ccccc1COc1cc(-n2cnc3cc(Cl)ccc32)sc1C(N)=O` it was 0%; in that of `Cc1ccc(C(=O)Nc2ccc(Nc3ccnc4cc(-c5ccccn5)ccc34)cc2O)cc1`, 0%; in that of `COc1ccc(Nc2nccc(NCCNC(=O)Nc3cc(C)ccc3C)n2)cc1`, 33.4%. In the case of `Fc1ccc(-c2nn3cccc(F)c3c2-c2ccncc2)cc1` it was 0%; in that of `CSc1nccc(-c2c(-c3ccc(F)cc3)ncn2CCCN2CCOCC2)n1`, 33.4%. As to `FC(F)(F)c1ccccc1-c1cc(-c2c[nH]nc2-c2ccccn2)ccn1`, the “MOTILITY REDUCTION/CYTOTOXICITY” value worked out at 0%.
